Calls of active or inactive are those of the source. The calls are words filed in the database; no cut-off is given here.

Test [1] deals with T1, Lysine-specific demethylase 4D (Homo sapiens) (UniProt Q6B0I6).
T1 sequence (whole entry): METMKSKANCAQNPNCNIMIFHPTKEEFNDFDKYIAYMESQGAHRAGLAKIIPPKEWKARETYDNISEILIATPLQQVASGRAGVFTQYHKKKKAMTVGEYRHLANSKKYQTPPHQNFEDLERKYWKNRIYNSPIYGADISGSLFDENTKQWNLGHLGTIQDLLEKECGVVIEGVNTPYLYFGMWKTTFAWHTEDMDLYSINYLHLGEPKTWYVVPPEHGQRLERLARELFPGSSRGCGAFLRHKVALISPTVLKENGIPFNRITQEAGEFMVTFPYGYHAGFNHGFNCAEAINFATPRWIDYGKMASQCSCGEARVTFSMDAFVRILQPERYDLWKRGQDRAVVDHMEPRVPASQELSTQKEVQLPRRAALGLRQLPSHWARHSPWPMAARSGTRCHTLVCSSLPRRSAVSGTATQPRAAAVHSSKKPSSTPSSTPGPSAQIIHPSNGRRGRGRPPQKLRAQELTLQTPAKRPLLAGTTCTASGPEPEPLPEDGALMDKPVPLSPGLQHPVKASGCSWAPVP
Put plainly: Inhibition of human KDM4D expressed in Escherichia coli BL21 (DE3) at 1 uM using biotinylated H3-derived peptide and 2-OG as substrate preincubated for 15 mins followed by substrate addition and measured after 1 hr by AlphaLISA assay. To be noted: time 75.0 min. For orientation: Bead proximity is the source of the signal in Alpha formats.

The subject of test [2] is HCT-116. The test is described as follows: Antiproliferative activity against human HCT-116 cells assessed as reduction in cell viability measured after 72 hrs by MTT assay. The test is classed as functional, cell-based. The conditions noted are these: HCT-116, 72 h. On the technique in general: Formazan colour is commonly taken as a measure of viable cells.
Test [3] has as its system SW-620. Put plainly: Antiproliferative activity against human SW-620 cells assessed as reduction in cell viability measured after 72 hrs by MTT assay. The test is classed as functional, cell-based. The conditions noted are these: SW-620, 72 h.
Test [4] relates to SW480. The test is described as follows: Antiproliferative activity against human SW480 cells assessed as reduction in cell viability measured after 72 hrs by MTT assay. The class given is functional, cell-based. The conditions noted are these: SW480, 72 h.
The subject of test [5] is A549. Put plainly: Antiproliferative activity against human A549 cells assessed as reduction in cell viability measured after 72 hrs by MTT assay. The class given is functional, cell-based.
The subject of test [6] is NCI-H1792. Put plainly: Antiproliferative activity against human NCI-H1792 cells assessed as reduction in cell viability measured after 72 hrs by MTT assay. The class given is functional, cell-based.
The subject of test [7] is HepG2. Put plainly: Antiproliferative activity against human HepG2 cells assessed as reduction in cell viability measured after 72 hrs by MTT assay. The test is classed as functional, cell-based.
For test [8], the system named is Huh-7. The test is described as follows: Antiproliferative activity against human Huh-7 cells assessed as reduction in cell viability measured after 72 hrs by MTT assay. The class given is functional, cell-based.
For test [9], the system named is SMMC-7721. Put plainly: Antiproliferative activity against human SMMC-7721 cells assessed as reduction in cell viability measured after 72 hrs by MTT assay. The test is classed as functional, cell-based.
The test system of test [10] is DU-145. The test is described as follows: Antiproliferative activity against human DU-145 cells assessed as reduction in cell viability measured after 72 hrs by MTT assay. The class given is functional, cell-based.
Test [11] deals with FaDu. The test is described as follows: Antiproliferative activity against human FaDu cells assessed as reduction in cell viability measured after 72 hrs by MTT assay. The class given is functional, cell-based.
Test [12] deals with HeLa. Put plainly: Antiproliferative activity against human HeLa cells assessed as reduction in cell viability measured after 72 hrs by MTT assay. The test is classed as functional, cell-based.
Test [13] relates to HCT-116. The test is described as follows: Inhibition of colony formation in human HCT-116 cells incubated for 7 days by crystal violet staining based assay. The test is classed as functional, cell-based. The conditions noted are these: dose 2.5-10 µM, time 7.0 day.
Test [14] has as its system SW-620. Put plainly: Inhibition of colony formation in human SW-620 cells incubated for 7 days by crystal violet staining based assay. The test is classed as functional, cell-based. To be noted: dose 2.5-10 µM, time 7.0 day.
Test [15] deals with SW480. The test is described as follows: Inhibition of colony formation in human SW480 cells incubated for 7 days by crystal violet staining based assay. The conditions noted are these: dose 2.5-10 µM, time 7.0 day. The test is classed as functional, cell-based.
For test [16], the system named is HCT-116. The test is described as follows: Inhibition of cell migration in human HCT-116 cells at 10 uM incubated for 36 hrs by wound healing assay. The test is classed as functional.
For test [17], the system named is HCT-116. Put plainly: Inhibition of cell migration in human HCT-116 cells at 20 uM incubated for 36 hrs by wound healing assay. The test is classed as functional.
The subject of test [18] is HCT-116. The test is described as follows: Inhibition of cell migration in human HCT-116 cells by crystal violet staining based transwell assay. The class given is functional. To be noted: dose 2.5-10 µM.
Test [19] deals with T1, Lysine-specific demethylase 4D (Homo sapiens). Put plainly: Inhibition of GST-tagged KDM4D (unknown origin) expressed in Escherichia coli DH5alpha assessed as histone demethylation activity using H3K9me3 as substrate incubated for 4 hrs in presence of FLAG-histone H3 measured by Western blot analysis. To be noted: dose 2.5-20 µM. On the technique in general: In western blotting, separated proteins are transferred to a membrane and probed.

Test [20] has the same target. Put plainly: Inhibition of KDM4D in human HCT-116 cells assessed as reduction in Gli1 protein expression incubated for 48 hrs measured by Western blot analysis. The test is classed as cell-based. The conditions noted are these: dose 2.5-20 µM.
Test [21] shares this target. The test is described as follows: Inhibition of KDM4D in human HCT-116 cells assessed as reduction in beta-catenin protein expression incubated for 48 hrs measured by Western blot analysis. To be noted: dose 2.5-20 µM. The class given is cell-based.
The target is the same in test [22]. The test is described as follows: Inhibition of KDM4D in human HCT-116 cells assessed as reduction in c-myc protein expression incubated for 48 hrs measured by Western blot analysis. The class given is cell-based. To be noted: dose 2.5-20 µM.
Test [23] is described as follows: Inhibition of KDM7B (unknown origin) by AlphaLISA assay. Further details: species or system Homo sapiens.
Test [24] concerns HCT-116. The test is described as follows: Inhibition of cell migration in human HCT-116 cells incubated for 12 to 36 hrs by wound healing assay. The test is classed as functional, cell-based. The conditions noted are these: dose 10-20 µM, time lower 12.0 hrs, time upper […].
In test [25] the test system is HCT-116. Put plainly: Inhibition of cell migration in human HCT-116 cells at 10 to 20 uM by wound healing assay. The class given is functional, cell-based. The conditions noted are these: dose 10-20 µM, time lower 12.0 hrs, time upper […], TDE = time-dependent effect.
Test [26] relates to HCT-116. The test is described as follows: Downregulation of KDM4D expression in human HCT-116 cells at 2.5 to 20 uM incubated for 48 hrs measured by Western blot analysis. The class given is functional, cell-based. The conditions noted are these: dose 2.5-20 µM.
Test [27] deals with T2, Lysine-specific demethylase 4D (Homo sapiens, UniProt Q6B0I6).
T2 sequence (Q6B0I6 whole entry): T1 sequence (whole entry)
Put plainly: Inhibition of KDM4D (unknown origin).

The inhibition is the percentage by which the read-out fell short of the control. What is called IC50 is the point on the concentration scale where inhibition reaches its midpoint. Regarding `CC(C)(C)OC(=O)N[C@@H]1CCN(C(c2ccc(-c3ccncc3)cc2)c2cc3c(cc2O)OCO3)C1` (some centres not stated), the inhibition in test [1] is 99.5%; in test [13], “Dose-Dependent Effect”; in test [14], “Dose-Dependent Effect”; in [15], “Dose-Dependent Effect”; in test [18] it was “Dose-Dependent Effect”; in [19], “Dose-Dependent Effect”. Further, the inhibition result is “Dose-Dependent Effect” in test [20]; “Dose-Dependent Effect” in [21]; “Dose-Dependent Effect” in test [22]; “Dose-Dependent Effect” in test [24]; “Tde” in test [25]. The IC50 in test [2] was 10.7 µM; in test [3] it was 19.2 µM; in [4], 10.7 µM; in test [23], 82.7 µM. Moreover, the outcome in test [5], in test [6], in test [7], in test [8], in [9] and in [10] was Active. Further, the outcome in test [11] and in [12] was Active. Also, 10 µM produced 42.4% inhibition in [16]. Testing at 20 µM in test [17] gave an inhibition of 94.1%. Also, the inhibition entry in [26] is “Active”.

In the case of `Clc1ccc(N/N=C(\c2ccccc2)c2ccccn2)nc1`, the IC50 in [27] amounted to 0.29 µM.

These data come from ChEMBL document CHEMBL4831501, “Discovery of a potent and selective inhibitor of histone lysine demethylase KDM4D” (Eur J Med Chem, 2021).
